The values below come from patent US20260014125A1, “BICYCLIC-TYPE MAT2A INHIBITOR AND USE THEREOF” (HAIHE BIOPHARMA CO., LTD., priority 2022, published 2026).

SMILES strings stand for the structures. Bounds are passed on as bounds.

In one test the test system is KP-4 cells. As to the kind of experiment: Human pancreatic cancer KP-4 cell activity inhibition test (CellTiter-Glo). Format: cell-based. To be noted: 5 days. Here is the method: Experimental principle: after co-incubating the MAT2A inhibitor to be tested with KP-4 cells for a period of time, a cell viability measurement method based on ATP content is used to characterize the effect of the tested compound on cell viability.
Experimental material: KP-4 cells (JCRB #JCRB0182); IMDM (Gibco 912440061); fetal bovine serum (EXCELL #FND500); penicillin-streptomycin (Gibco #15140-122); 0.25% Typsin-EDTA (Gibco #252(101-072); DMSO (Sigma #D2650); 96 well plate (Corning #3610); CellTiter-Glo (Promega #G7571)
1. KP-4 cells were cultured in IMDM culture medium containing 10% e fetal bovine serum and 1% penicillin-streptomycin at 37° C. and 5% CO2 in a cell culture incubator. Only cells in logarithmic growth phase were used for subsequent experiments.
2. The cells in logarithmic growth phase were inoculated into a 96 well plate, with a seeding quantity of 500 cells per well, and incubated overnight in a cell culture incubator at 37′C and 5% CO2.
3. The compound was dissolved with DMSO, diluted with culture medium to 10 different concentrations (approximately […]), 3333.3, 1111.1, 370, 123, 41.2, 13.7, 4.6, 1.5, and 0.5 nM) before adding it to the cell plate, and cultured at 37° C. and 5% CO2 for 5 days.
4. CellTiter-Glo reagent was added, and an enzyme-linked immunosorbent assay reader was used to detect cell viability.
Data analysis: the inhibition rate (%) of the compound was calculated and fitted to obtain the IC50 of the tested compound. Calculation method for compound inhibition rate: Compound inhibition rate (%)=(Signal_max−Signal_sample)/(Signal_max−Signal_min)×100, wherein Signal_sample was the sample well reading, indicating the cell activity of the compound inhibition well; Signal_min was the positive control well reading, indicating the background activity without cells; and Signal_max was the negative control well reading, indicating the cell activity of the well without compound inhibition.
Background: Cellular ATP, detected with luciferase, serves as a proxy for viable cell number.
The IC50 is the concentration at which inhibition is half-maximal. High values mean lower potency, low ones higher potency. Take `COc1ccc(-c2cc3cn[nH]c3n(-c3ccc4nn(C)cc4c3)c2=O)cc1` [Compound 1]: the IC50 was greater than 10000 nM.

The same test, now with this note: Homo sapiens, 120 h, 5 days.
In turn, `CCOc1c(-c2ccc(Cl)cc2)c(=O)n(-c2ccc3nn(CCN(C)C)cc3c2)c2[nH]ncc12` [Compound 111] came in with an IC50 of 62.8 nM.

In turn, `CCOc1c(-c2ccc(Br)cc2)c(=O)n(-c2ccc3nn(C)cc3c2)c2[nH]ncc12` [Compound 54] gave an IC50 of 19.2 nM. In the case of `CCOc1c(-c2ccc(OC(F)F)cc2)c(=O)n(-c2ccc3nccn3c2)c2[nH]ncc12` [Compound 24], the IC50 is 256 nM. As to `CCNc1c(-c2ccc(OC(F)F)cc2)c(=O)n(-c2ccc3nn(C)cc3n2)c2[nH]ncc12` [Compound 129], the IC50 turned out to be 23.3 nM. `CCOc1c(-c2ccc(OC(F)F)cc2)c(=O)n(-c2ccc3nn(CCOC)cc3c2)c2[nH]ncc12` [Compound 21] showed an IC50 of 18.9 nM. As to `CCOc1c(-c2ccc(OC(F)F)cc2)c(=O)n(-c2ccc3ncnn3c2)c2[nH]ncc12` [Compound 25], the IC50 amounted to 274 nM.

The compound `CCOc1c(-c2ccc(OC(F)F)cc2)c(=O)n(-c2ccn3nccc3c2)c2[nH]ncc12` [Compound 23] showed an IC50 of 89.2 nM.

The target in a further test is MAT2A (Homo sapiens (Human), UniProt P31153). As to the kind of experiment: Biochemical test: inhibition of MAT2A enzyme activity (phosphate detection, OD620). To be noted: MAT2A his-tag; 150 minutes enzymatic reaction. The source says: Experimental principle: MAT2A can catalyze the conversion of L-methionine and ATP into SAM, inorganic phosphate, and inorganic diphosphate. By adding a chromogenic reagent to the enzymatic reaction system, the content of inorganic phosphates in a sample can be quantitatively detected, thereby characterizing the enzymatic activity of MAT2A.
MAT2A, sequence (P31153 whole entry): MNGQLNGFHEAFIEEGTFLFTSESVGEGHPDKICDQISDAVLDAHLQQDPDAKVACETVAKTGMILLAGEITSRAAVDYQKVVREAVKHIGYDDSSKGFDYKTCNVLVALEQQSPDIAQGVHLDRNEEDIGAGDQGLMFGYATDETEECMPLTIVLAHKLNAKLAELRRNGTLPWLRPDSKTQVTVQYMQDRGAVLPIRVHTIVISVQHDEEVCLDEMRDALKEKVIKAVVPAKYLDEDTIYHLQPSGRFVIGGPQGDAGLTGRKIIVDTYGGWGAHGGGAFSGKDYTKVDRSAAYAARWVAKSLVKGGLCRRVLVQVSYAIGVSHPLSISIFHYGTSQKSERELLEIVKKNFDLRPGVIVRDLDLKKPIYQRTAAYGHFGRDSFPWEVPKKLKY
Experimental material: Tris (Life Science #0497); BSA (Sigma #); MAT2A his-tag (BPS #71401-1); 384 well plate (Corning #3765); L-methionine (Admas #1100469); ATP (Sigma #A7699); MgCl2 (Sigma #M8266); KCl (Sigma #7447-40-7); Brij35 (Sigma #B4184); EDTA (Sigma #E1644)
1. 1×Assaybuffer (buffer composition: Tris, KCl, MgCl2, BSA, Brij35, and EDTA; the solvent was ultrapure water) was prepared. MAT2A his-tag enzyme solution (containing 1.3 μL of MAT2A enzyme and 998.7 μL of 1×Assaybuffer per 1000 μL) and substrate mixed solution (containing 5 μL of ATP, 1.3 μL of L-methionine, and 993.7 μL of 1×Assaybuffer per 1000 μL) were prepared using 1×AssayBuffer.
2. Preparation of compound concentration gradient: The test compound was tested with a starting concentration of 10 μM, and 10 equimolar concentrations were set according to a 3-fold dilution. Specifically, firstly, the compound was diluted into 10 different concentrations of series solutions in a 384 well plate (with final detection concentrations of 10, 3.33, 1.11, 0.37, 0.123, 0.041, 0.0137, 0.0046, 0.0015, and 0.0005 μM), and then 250 nL of the above series solutions was transferred to the 384 well reaction plate using an ultrasonic pipetting system Echo550 for later use. 250 nL of 100% DMSO was added into a negative control well and a positive control well, respectively. Double well test.
3. 15 μL of MAT2A his-tag enzyme solution was added into both the compound well and the positive control well; and 15 μL of 1×Assaybuffer was added into the negative control well.
4. The 384 well plate reaction plate was centrifuged at 1000 rpm for 60 seconds, shaken, mixed well, and incubated for 15 minutes. 10 μL of substrate mixed solution was added into each experimental well of the 384 well reaction plate to initiate the reaction.
5. The 384 well reaction plate was centrifuged at 1000 rpm for 60 seconds, shaken, mixed well, and incubated for 150 minutes.
6. 50 μL of enzyme reaction termination solution Biomol was added into all experimental wells of the 384 well reaction plate to terminate the reaction, centrifuged at 1000 rpm for 60 seconds, and incubated for 15 minutes. OD620 was read and data was processed.
Data analysis: the inhibition rate (%) of the compound was calculated and fitted to obtain the IC50 of the tested compound. Calculation method for compound inhibition rate: Compound inhibition rate (%)=(OD620_max−OD620_stample)/(OD620_max−OD620_min)×100, wherein OD620_stample was the absorbance value of the sample well; OD620 min was the absorbance value of the positive control well, indicating the reading of the wells without enzyme activity; and OD620_max was the absorbance value of the negative control well, indicating the reading of the well without compound inhibition.
`CCOc1c(-c2ccc(Cl)cc2)c(=O)n(-c2ccc3nn(CCN(C)C)cc3c2)c2[nH]ncc12` [Compound 111]: the midpoint of inhibition, the IC50, lay at 17.5 nM.

Turning to `CCOc1c(-c2ccc(C)nc2)c(=O)n(-c2ccc3nn(CC)cc3c2)c2[nH]ncc12` [Compound 101], the IC50 was found to be 17.4 nM. `CCN(C)c1c(-c2ccc(Cl)cc2)c(=O)n(-c2ccc3nn(C)cc3c2)c2[nH]ncc12` [Compound 64] came in with an IC50 of 18.5 nM. As to `COc1ccc(-c2cc3cn[nH]c3n(-c3ccc4nn(C)cc4c3)c2=O)cc1` [Compound 1], the IC50 is greater than 10000 nM. The compound `CCOc1c(-c2ccc(Br)cc2)c(=O)n(-c2ccc3nn(C)cc3c2)c2[nH]ncc12` [Compound 54] gave an IC50 of 12.9 nM. Regarding `CCNc1c(-c2ccc(OC(F)F)cc2)c(=O)n(-c2ccc3nn(C)cc3n2)c2[nH]ncc12` [Compound 129], inhibition was half-maximal at 17.8 nM (IC50). This IC50 and that of the compound before are within 1.5-fold of each other.

`CCOc1c(-c2ccc(=O)[nH]c2)c(=O)n(-c2ccc3nn(C)cc3c2)c2[nH]ncc12` [Compound 125] displayed an IC50 of 45.3 nM.

As for `CCOc1c(-c2ccc(C#N)cc2)c(=O)n(-c2ccc3nn(C)cc3c2)c2[nH]ncc12` [Compound 65], the midpoint of inhibition, the IC50, lay at 16 nM. The same measure, in the same setting: as for `Cc1ccc(-c2c(OCC(F)(F)F)c3cn[nH]c3n(-c3ccc4nn(C)cc4n3)c2=O)cn1` [Compound 89], the figure is 16 nM. In the case of `CCOc1c(-c2ccc(Cl)cc2)c(=O)n(-c2ccn3nccc3c2)c2[nH]ncc12` [Compound 114], the concentration for half-maximal inhibition (IC50) came to 67.3 nM.

`CCOc1c(-c2ccc(C(F)(F)F)nc2)c(=O)n(-c2ccc3nn(C)cc3n2)c2[nH]ncc12` [Compound 87] displayed an IC50 of 28.3 nM. With `CCOc1c(-c2ccc(OC(F)F)cc2)c(=O)n(-c2cnc3nn(C)cc3c2)c2[nH]ncc12` [Compound 40], the IC50 is 55.8 nM. As for `CCOc1c(-c2ccc(Cl)cc2)c(=O)n(-c2ccn3nc(C)cc3n2)c2[nH]ncc12` [Compound 116], the IC50 was found to be 335 nM.

Consider `CCOc1c(-c2ccc(Cl)cc2)c(=O)n(-c2ccc3nn(C)nc3n2)c2nn(C)cc12` [Compound 138], for which the IC50 is 50.7 nM.

With `CCOc1c(-c2cccc(OC)c2)c(=O)n(-c2ccc3nn(C)cc3c2)c2[nH]ncc12` [Compound 18], half-maximal inhibition (IC50) required 22.9 nM. In turn, `CCOc1c(-c2ccc(Cl)cc2)c(=O)n(-c2ccc3ncn(CC)c3c2)c2[nH]ncc12` [Compound 34] yielded an IC50 of 22.1 nM.

`CCOc1c(-c2ccc(C)nc2)c(=O)n(-c2ccc3nn(C)cc3n2)c2[nH]ncc12` [Compound 86] came in with an IC50 of 20.3 nM.

The compound `CCOc1c(-c2ccc(Cl)cc2)c(=O)n(-c2ccc3c(cnn3CCN(C)C)n2)c2[nH]ncc12` [Compound 139] came in with an IC50 of 376 nM. `CCOc1c(-c2ccc(Cl)cc2)c(=O)n(-c2ccc3nn(C)cc3c2)c2cnn(C)c12` [Compound 100] showed an IC50 of 62.4 nM. Against the preceding compound, the IC50 is about 6-fold lower. `CCNc1c(-c2ccc(Cl)cc2)c(=O)n(-c2ccc3c(c2)ncn3C)c2[nH]ncc12` [Compound 16] displayed an IC50 greater than 10000 nM. On to `CCOc1c(-c2ccc(C)cc2)c(=O)n(-c2ccc3nn(C)cc3n2)c2[nH]ncc12` [Compound 133], for which the IC50 was 27.4 nM. This counts as double-digit nanomolar. Same read-out and setting: then `CCOc1c(-c2ccc(Cl)cc2)c(=O)n(-c2ccc3ncn(C4CNC4)c3c2)c2[nH]ncc12` [Compound 35], with 60.8 nM. `Cn1cnc2ccc(-n3c(=O)c(-c4ccc(OC(F)F)cc4)c(OCC4CC4)c4cn[nH]c43)cc21` [Compound 32] had an IC50 of 14.6 nM. In turn, `[2H]C([2H])([2H])C([2H])([2H])Oc1c(-c2ccc(Cl)cc2)c(=O)n(-c2ccc3nn(C)cc3c2)c2[nH]ncc12` [Compound 142] yielded an IC50 of 10.3 nM. `CCOc1c(-c2ccc(Cl)cc2)c(=O)n(-c2ccc3nn(C)cc3c2)c2[nH]cnc12` [Compound 67]: the IC50 amounted to 17.8 nM. `CCOc1c(-c2ccc(Cl)cc2)c(=O)n(-c2ccc3nn(C)nc3c2)c2nn(C)cc12` [Compound 136] returned an IC50 of 17.9 nM. The IC50 values of the last two compounds are within 1.5-fold of each other. Take `CCOc1c(-c2ccc(Cl)cc2)c(=O)n(-c2ccc3nnn(C)c3c2)c2nn(C)cc12` [Compound 140]: half-maximal inhibition (IC50) required 13 nM. On to `CCNc1c(-c2ccc(OC)cc2)c(=O)n(-c2ccc(C#N)cc2)c2[nH]ncc12` [Compound 6], for which half-maximal inhibition (IC50) required 708 nM. In turn, `CCOc1c(-c2ccc(OC(F)F)cc2)c(=O)n(-c2ccc3nn(C)cc3c2)c2c1cnn2C` [Compound 31] had an IC50 of 120 nM. The compound `CCOc1c(-c2ccc(C)nc2)c(=O)n(-c2ccc3nn(C)cc3c2)c2[nH]ncc12` [Compound 48] gave an IC50 of 16.3 nM. Against the preceding compound, the IC50 is about 7.4-fold lower. `CCOc1c(-c2ccc(Cl)cc2)c(=O)n(-c2ccc3c(cnn3CCN(C)C)c2)c2[nH]ncc12` [Compound 131]: the IC50 is 36.2 nM. Same read-out and setting: as for `CCCc1c(-c2ccc(Cl)cc2)c(=O)n(-c2ccc3nn(C)cc3c2)c2[nH]ncc12` [Compound 112], the figure is 18.3 nM.

For `CCSc1c(-c2ccc(Cl)cc2)c(=O)n(-c2ccc3nn(C)cc3c2)c2[nH]ncc12` [Compound 130], the half-maximal inhibitory concentration (IC50) worked out at 11.2 nM. This IC50 lies about 1.6-fold lower than the previous one.

`CCOc1c(-c2ccc(Cl)cc2)c(=O)n(-c2ccc3nn(C)cc3n2)c2c1cnn2C` [Compound 121] registered an IC50 of 1120 nM.

`Cn1cc2cc(-n3c(=O)c(-c4ccc(OC(F)F)cc4)c(OCC4CC4)c4cn[nH]c43)ccc2n1` [Compound 39] returned an IC50 of 15 nM.

Compound `CCOc1c(-c2ccc(Cl)cc2)c(=O)n(-c2ccc3nn(C)cc3c2)c2nn(CCO)cc12` [Compound 122] showed an IC50 of 27.7 nM. For `CCOc1c(-c2ccc(Cl)cc2)c(=O)n(-c2ccc3nn(C)cc3c2)c2cn(C)nc12` [Compound 56], the IC50 was determined as 24.4 nM. The same measure, in the same setting: as for `Cn1cc2cc(-n3c(=O)c(-c4ccc(Cl)cc4)c(OCCO)c4cn[nH]c43)ccc2n1` [Compound 59], the figure is 20.7 nM. The compound `CCOc1c(C2CCCCC2)c(=O)n(-c2ccc3nn(C)cc3c2)c2[nH]ncc12` [Compound 61] had an IC50 of 14.2 nM. On to `COCCOc1c(-c2ccc(Cl)cc2)c(=O)n(-c2ccc3nn(C)cc3c2)c2[nH]ncc12` [Compound 60], for which the IC50 was found to be 14.2 nM.
